Experimental data published in US20050112573A1, “Method of detecting toxic substance” (priority 2001, published 2005).

Test system: yeast genes (level of expressed mRNA)
Assay: DNA chip analysis of expressed mRNA of yeast genes after 2 h culture with a toxic chemical substance
Assay type: cell-based, Saccharomyces cerevisiae S288C
Procedure: Yeast (Saccharomyces cerevtisiae S288C (α SUC2mal mel gap2 CUP1)) were cultured at 25° C. on YPD medium (yeast extract 1%, polypepton 2%, glucose 2%). One of toxic chemical substances was added to the cell at logarithmic growth phase, and the cell was further cultured for two hours. Cell was cultured without any chemical substance in the same condition, and was used as control. Concentrations of the chemical substances were defined to inhibit the growth of the yeast but not lead to death.
After the completion of cultivation, the culture was centrifuged to collect the cells. To the cells, sodium acetate buffer (50 mM sodium acetate, 10 mM EDTA, 1% SDS) was added, and the mixture was shaken at 65° C. for five minutes, followed by returning to room temperature, and obtaining the supernatant, which procedure was repeated two times. To the supernatant, ½ amount of a solution of phenol/chloroform was added, and the mixture was centrifuged to give a supernatant, which was added with an equal amount of chloroform, and the mixture was centrifuged to give a supernatant. To the supernatant, an equal amount of isopropanol containing 0.3 M sodium acetate was added, and the mixture was allowed to stand at room temperature for 30 minutes, after which the mixture was centrifuged to give a sediment of the whole RNAs. Seventy % ethanol was added to the sediment, and the mixture was again centrifuged to give a sediment, which was then dried and dissolved in water. mRNA was isolated from the whole RNAs as followings. In view of the fact that a poly A chain is attached to the 3′ terminus of mRNA, a polynucleotide having a poly T structure which was immobilized on the surface of latex beads was used to trap the mRNA, and then the mRNA was washed and eluted with spine column (Oligotex-dT30<Super>mRNA Purification Kit, Takara). Reverse transcription of the mRNA was conducted with a reverse transcriptase (Super Script II Reverse Transcriptase; catalogue No. 18064-014, GibcoBRL) using fluorescence-labeled nucleotides to give cDNAs that were introduced with Cy3-dUTP or Cy5-dUTP during the reverse transcription.
The labeled cDNAs were dissolved in TE buffer (10 mM Tris-HCl/1 mM EDTA, pH8.0), and the solution was dropped on the DNA chip containing the whole genes of yeast (DNA Chip Research Inc. Japan) so that the cDNAs were hybridized on the DNA chip at 65° C. for over 12 hours. The fluoresces intensity of the DNA chip was read with a scanner, and the ratio relative to the fluorescence intensity resulting from the absence of chemical substance was estimated as the following, which is shown in Tables 1 to 9: [formula]
In the Tables, “Intensity” indicated in the rightmost column is a value of the level of expressed mRNA of each gene in control cells as divided by the average level of the expressions of the whole genes.

N#Cc1c(Cl)c(Cl)c(Cl)c(C#N)c1Cl [(9), 2,4,5,6-tetrachloro-1,3-benzenedicarbonitrile]
The level of expressed mRNA in the presence of chemical substance/The level of expressed mRNA in the absence of chemical substance (yeast gene YKL039W): 1.3
The level of expressed mRNA in the presence of chemical substance/The level of expressed mRNA in the absence of chemical substance (yeast gene YKL041W): 1.6
The level of expressed mRNA in the presence of chemical substance/The level of expressed mRNA in the absence of chemical substance (yeast gene YKL139W): 1.6
The level of expressed mRNA in the presence of chemical substance/The level of expressed mRNA in the absence of chemical substance (yeast gene YKL165C): 0.4
The level of expressed mRNA in the presence of chemical substance/The level of expressed mRNA in the absence of chemical substance (yeast gene YKL193C): 1.0
The level of expressed mRNA in the presence of chemical substance/The level of expressed mRNA in the absence of chemical substance (yeast gene YKR014C): 2.4
The level of expressed mRNA in the presence of chemical substance/The level of expressed mRNA in the absence of chemical substance (yeast gene YLR093C): 1.5
The level of expressed mRNA in the presence of chemical substance/The level of expressed mRNA in the absence of chemical substance (yeast gene YLR120C): 1.8
The level of expressed mRNA in the presence of chemical substance/The level of expressed mRNA in the absence of chemical substance (yeast gene YLR136C): 0.9
The level of expressed mRNA in the presence of chemical substance/The level of expressed mRNA in the absence of chemical substance (yeast gene YLR178C): 4.3
The level of expressed mRNA in the presence of chemical substance/The level of expressed mRNA in the absence of chemical substance (yeast gene YLR250W): 2.7
The level of expressed mRNA in the presence of chemical substance/The level of expressed mRNA in the absence of chemical substance (yeast gene YLR327C): 3.0
The level of expressed mRNA in the presence of chemical substance/The level of expressed mRNA in the absence of chemical substance (yeast gene YLR356W): 2.3
The level of expressed mRNA in the presence of chemical substance/The level of expressed mRNA in the absence of chemical substance (yeast gene YLR362W): 3.5
The level of expressed mRNA in the presence of chemical substance/The level of expressed mRNA in the absence of chemical substance (yeast gene YLR391W): 0.4
The level of expressed mRNA in the presence of chemical substance/The level of expressed mRNA in the absence of chemical substance (yeast gene YLR429W): 0.9
The level of expressed mRNA in the presence of chemical substance/The level of expressed mRNA in the absence of chemical substance (yeast gene YMR004W): 94.2
The level of expressed mRNA in the presence of chemical substance/The level of expressed mRNA in the absence of chemical substance (yeast gene YMR104C): 0.6
The level of expressed mRNA in the presence of chemical substance/The level of expressed mRNA in the absence of chemical substance (yeast gene YMR219W): 2.3
The level of expressed mRNA in the presence of chemical substance/The level of expressed mRNA in the absence of chemical substance (yeast gene YMR226C): 2.6
The level of expressed mRNA in the presence of chemical substance/The level of expressed mRNA in the absence of chemical substance (yeast gene YMR275C): 2.4
The level of expressed mRNA in the presence of chemical substance/The level of expressed mRNA in the absence of chemical substance (yeast gene YMR276W): 1.8
The level of expressed mRNA in the presence of chemical substance/The level of expressed mRNA in the absence of chemical substance (yeast gene YMR314W): 5.9
The level of expressed mRNA in the presence of chemical substance/The level of expressed mRNA in the absence of chemical substance (yeast gene YNL006W): 4.0
The level of expressed mRNA in the presence of chemical substance/The level of expressed mRNA in the absence of chemical substance (yeast gene YNL007C): 3.0
The level of expressed mRNA in the presence of chemical substance/The level of expressed mRNA in the absence of chemical substance (yeast gene YNL093W): 1.7
The level of expressed mRNA in the presence of chemical substance/The level of expressed mRNA in the absence of chemical substance (yeast gene YNL333W): 2.3
The level of expressed mRNA in the presence of chemical substance/The level of expressed mRNA in the absence of chemical substance (yeast gene YNR010W): 1.7
The level of expressed mRNA in the presence of chemical substance/The level of expressed mRNA in the absence of chemical substance (yeast gene YNR069C): 5.5
The level of expressed mRNA in the presence of chemical substance/The level of expressed mRNA in the absence of chemical substance (yeast gene YOL013C): 0.8
The level of expressed mRNA in the presence of chemical substance/The level of expressed mRNA in the absence of chemical substance (yeast gene YOL164W): 4.9
The level of expressed mRNA in the presence of chemical substance/The level of expressed mRNA in the absence of chemical substance (yeast gene YOR036W): 1.2
The level of expressed mRNA in the presence of chemical substance/The level of expressed mRNA in the absence of chemical substance (yeast gene YOR117W): 3.5
The level of expressed mRNA in the presence of chemical substance/The level of expressed mRNA in the absence of chemical substance (yeast gene YOR124C): 2.0
The level of expressed mRNA in the presence of chemical substance/The level of expressed mRNA in the absence of chemical substance (yeast gene YOR132W): 2.8
The level of expressed mRNA in the presence of chemical substance/The level of expressed mRNA in the absence of chemical substance (yeast gene YOR157C): 5.7
The level of expressed mRNA in the presence of chemical substance/The level of expressed mRNA in the absence of chemical substance (yeast gene YOR181W): 0.6
The level of expressed mRNA in the presence of chemical substance/The level of expressed mRNA in the absence of chemical substance (yeast gene YOR185C): 1.9
The level of expressed mRNA in the presence of chemical substance/The level of expressed mRNA in the absence of chemical substance (yeast gene YOR198C): 2.4
The level of expressed mRNA in the presence of chemical substance/The level of expressed mRNA in the absence of chemical substance (yeast gene YOR259C): 2.7
The level of expressed mRNA in the presence of chemical substance/The level of expressed mRNA in the absence of chemical substance (yeast gene YOR261C): 5.5
The level of expressed mRNA in the presence of chemical substance/The level of expressed mRNA in the absence of chemical substance (yeast gene YOR288C): 0.9
The level of expressed mRNA in the presence of chemical substance/The level of expressed mRNA in the absence of chemical substance (yeast gene YOR355W): 0.1
The level of expressed mRNA in the presence of chemical substance/The level of expressed mRNA in the absence of chemical substance (yeast gene YOR383C): 1.2
The level of expressed mRNA in the presence of chemical substance/The level of expressed mRNA in the absence of chemical substance (yeast gene YPL089C): 0.4
The level of expressed mRNA in the presence of chemical substance/The level of expressed mRNA in the absence of chemical substance (yeast gene YPL109C): 1.2
The level of expressed mRNA in the presence of chemical substance/The level of expressed mRNA in the absence of chemical substance (yeast gene YPL149W): 5.6
The level of expressed mRNA in the presence of chemical substance/The level of expressed mRNA in the absence of chemical substance (yeast gene YPL154C): 2.8
The level of expressed mRNA in the presence of chemical substance/The level of expressed mRNA in the absence of chemical substance (yeast gene YPR103W): 5.5
The level of expressed mRNA in the presence of chemical substance/The level of expressed mRNA in the absence of chemical substance (yeast gene YPR108W): 3.7
